Reference: US12071436B2, “Anti-parasitic compounds and uses thereof” (Memorial Sloan-Kettering Cancer Center, priority 2016, dated 2024)
Where two headings read alike, the source gives them in different places.

Experiments:
[1] = test system: HepG2 human hepatoma cells; test: HepG2 cytotoxicity, MTS cell proliferation assay; assay type: cell-based; settings: 48 h, n=1
Method: (§1) Select compounds described herein were evaluated for structure-activity analyses for anti-plasmodial activity in vitro. For Dd2 EC50 (M), calculations were for n=3. For HepG2 EC50 (M), calculations were for n=1. For the human microsomal stability determination, t was 60 minutes.
Selected compounds were evaluated for cytotoxicity using HepG2 human hepatoma cells. A 384-well clear bottom plate was seeded with 2,500 cells/well and incubated for 24 h. Serial dilutions of the compound (were added to the plate and plates were incubated for an additional 48 h. Viability of cells were assessed by MTS [(3-(4,5-dimethylthiazol-2-yl)-5-(3-carboxymethoxyphenyl)-2-(4-sulfophenyl)-2H-tetrazolium) cell proliferation assay (CellTiter 96® Aqueous non-radioactive cell proliferation assay, Promega) (See Cory et al., Cancer Communications, 3, 1991, p. 207-212).

[2] = test system: P. falciparum Dd2; test: Anti-plasmodial growth inhibition, SYBR green I-based DNA quantification; assay type: cell-based; settings: Plasmodium falciparum, 72 h incubation, n=3
Method: as §1
Different dilutions of the compound in RPMI 1640 (Life Technologies) from a stock of 10 mM in dimethyl sulfoxide (DMSO) were added to the culture at a 1% parasitemia and 2% hematocrit in 96-well black plates (Santa Cruz Biotechnology). Maximum DMSO concentration in the culture never exceeded 0.25%. Chloroquine at 1 μM was used as a positive control to determine the baseline value. Following 72 h incubation at 37° C., the ability of the compounds to inhibit growth of the parasite was determined by a SYBR green I-based DNA quantification assay (See Bennett et al., 2004, Chemother. 48, 1807-1810; see also Johnson et al., 2007, Antimicrob. Agents. Chemother. 51, 1926-1933; Smilkstein et al., 2004, Antimicrob. Agents. Chemother. 48, 1803-1806). EC50 was calculated (n=3) from a dose response curve that was generated from a concentration range of 0-20 μM using GraphPad Prism v5.0.

[3] = Plasma pharmacokinetics and liver distribution study in female BALB/c mice; assay type: in vivo, mouse; settings: 100 mg/kg, female BALB/c mice; for Tmax: mouse, plasma, read-out: Tmax (plasma)
Method: A plasma pharmacokinetics and liver distribution study of selected compounds, including Pyrrolopyridine-008 (2015-foleyc-216), Pyrrolopyridine-D20-ent (2015-foleyc-217), and Pyrrolopyridine-M03 (2015-foleyc-218), in female BALB/c mice was conducted following a single intraperitoneal and oral administration. […] The blood samples were collected from a set of […] mice at each time point in labeled micro centrifuge tube containing K2EDTA as anticoagulant. Plasma samples were separated by centrifugation at 4000 rpm for 10 min and stored below −70° C. until bioanalysis. After collection of blood sample, animals were humanely euthanized by carbon dioxide asphyxiation to collect liver from Group 1 and Group 2 at all the time points. The collected tissues were rinsed in PBS and were homogenized with nine times of liver weight in ice cold phosphate buffer saline (pH 7.4) and stored below −70° C. until bio-analysis. Total homogenate volume was ten times the tissue weight. All samples were processed for analysis by protein precipitation using acetonitrile and analyzed with fit-for-purpose LC-MS/MS method (LLOQ: 2.01 ng/mL for plasma and 50.30 ng/g for liver). Pharmacokinetic parameters were calculated using the non-compartmental analysis tool of Phoenix WinNonlin® (Version 6.3).

[4] = test system: Trypanosoma cruzi parasites; test: Trypanosoma cruzi in vitro IC50 (structure-activity analyses); assay type: cell-based; settings: infection with Trypanosoma cruzi parasites for 72 hours and treatment with the compound for 72 hours
Method: Select compounds described herein were evaluated for structure-activity analyses in vitro.

[5] = Cytotoxicity (Table 1); assay type: cell-based
[6] = ip, single intraperitoneal dose

Row | EC50 [2] [µM] | IC50 [4] [µM] | Compound | EC50 [1] [µM] | Cytotoxicity [5] [µM] | further results
1 | 2.19 ± 0.32 |  | CC(C)(C)[S@@+]([O-])N1Cc2cc(C(=O)NCc3ccc4c(c3)OCO4)nc(-c3ccccc3)c2[C@H]1CCO [2015-foleyc-217, (R)-N-(benzo[d][1,3]dioxol-5-ylmethyl)-2-((R)-tert-butylsulfinyl)-3-(2-hydroxyethyl)-4-phenyl-2,3-dihydro-1H-pyrrolo[3,4-c]pyridine-6-carboxamide] | 63 |  | Tmax [3, 6]: 60 min; Tmax ([3]; single oral dose): 30 min; plasma concentrations quantifiable till ([3]; single intraperitoneal dose): 12 h; plasma concentrations quantifiable till ([3]; single oral dose): 12 h
2 |  | 2.85 | CC(C)(C)[S@@+]([O-])N1Cc2cc(C(=O)N[C@@H]3CCN(Cc4ccccc4)C3)nc(-c3cccc(Br)c3)c2[C@H]1CCO [Compound 86, (R)-N-((R)-1-Benzylpyrrolidin-3-yl)-4-(3-bromophenyl)-2-((R)-tert-butylsulfinyl)-3-(2-hydroxyethyl)-2,3-dihydro-1H-pyrrolo[3,4-c]pyridine-6-carboxamide] |  | >10 | 
3 |  | 0.028 | CN(C)CC#Cc1cccc(-c2nc(C(=O)N[C@H]3CCN(Cc4ccccc4)C3)cc3c2[C@@H](CCO)N([S@+]([O-])C(C)(C)C)C3)c1 [Compound 89, (R)-N-((S)-1-benzylpyrrolidin-3-yl)-2-((R)-tert-butylsulfinyl)-4-(3-(3-(dimethylamino)prop-1-yn-1-yl)phenyl)-3-(2-hydroxyethyl)-2,3-dihydro-1H-pyrrolo[3,4-c]pyridine-6-carboxamide] |  | >10 | 
4 |  | 0.495 | CN(C)CC#Cc1cccc(-c2nc(C(=O)NCc3ccc4c(c3)OCO4)cc3c2CN([S@+]([O-])C(C)(C)C)C3)c1 [Compound 57, (R)-N-(Benzo[d][1,3]dioxol-5-ylmethyl)-2-(tert-butylsulfinyl)-4-(3-(3-(dimethylamino)prop-1-yn-1-yl)phenyl)-2,3-dihydro-1H-pyrrolo[3,4-c]pyridine-6-carboxamide] |  | >10 | 
5 | 1.45 ± 0.28 |  | CC(C)(C)[S@@+]([O-])N1Cc2cc(C(=O)NCc3ccccc3F)nc(-c3ccccc3)c2[C@H]1CCO [2015-foleyc-218, (R)-2-((R)-tert-butylsulfinyl)-N-(2-fluorobenzyl)-3-(2-hydroxyethyl)-4-phenyl-2,3-dihydro-1H-pyrrolo[3,4-c]pyridine-6-carboxamide] | > 100 |  | Tmax [3, 6]: 60 min; Tmax ([3]; single oral dose): 30 min; plasma concentrations quantifiable till ([3]; single intraperitoneal dose): 12 h; plasma concentrations quantifiable till ([3]; single oral dose): 12 h
6 | 5.84 ± 0.94 |  | CC(C)(C)[S@@+]([O-])N1Cc2cc(C(=O)NCC(F)(F)F)nc(-c3cccc(-c4cccnc4)c3)c2[C@H]1CCO [2015-foleyc-237, (R)-2-((R)-tert-butylsulfinyl)-3-(2-hydroxyethyl)-4-(3-(pyridin-3-yl)phenyl)-N-(2,2,2-trifluoroethyl)-2,3-dihydro-1H-pyrrolo[3,4-c]pyridine-6-carboxamide] | > 100 |  | 
7 |  | 0.0437 | CN(C)CC#Cc1cccc(-c2nc(C(=O)NCc3ccc4c(c3)OCO4)cc3c2[C@@H](CCO)N([S@@+]([O-])C(C)(C)C)C3)c1 [Compound 85, (R)-N-(Benzo[d][1,3]dioxol-5-ylmethyl)-2-((S)-tert-butylsulfinyl)-4-(3-(3-(dimethyl-amino)prop-1-yn-1-yl)phenyl)-3-(2-hydroxyethyl)-2,3-dihydro-1H-pyrrolo[3,4-c]pyridine-6-carboxamide] |  | >10 | 
8 | > 25 |  | CC(C)NC(=O)N1Cc2cc(C(N)=O)nc(-c3cccc(-c4cc5ccccc5o4)c3)c2[C@H]1CCO [2015-foleyc-248, (R)-4-(3-(benzofuran-2-yl)phenyl)-3-(2-hydroxyethyl)-N^2-isopropyl-1,3-dihydro-2H-pyrrolo[3,4-c]pyridine-2,6-dicarboxamide] | > 100 |  | 
9 | 1.48 ± 0.14 |  | CC(C)(C)[S@@+]([O-])N1Cc2cc(C(N)=O)nc(-c3cccc(-c4cccnc4)c3)c2[C@H]1CCO [2015-foleyc-247] | > 100 |  | 
10 | 4.99 ± 0.59 |  | CC(C)NC(=O)N1Cc2cc(C(=O)NCc3ccc4c(c3)OCO4)nc(-c3cccc(-c4cc5ccccc5o4)c3)c2[C@H]1CCO [2015-foleyc-241, (R)-N^6-(benzo[d][1,3]dioxol-5-ylmethyl)-4-(3-(benzofuran-2-yl)phenyl)-3-(2-hydroxyethyl)-N^2-isopropyl-1,3-dihydro-2H-pyrrolo[3,4-c]pyridine-2,6-dicarboxamide] | > 100 |  | 
11 |  | 8.5 | CCOC(=O)c1cc2c(c(-c3cccc(C#CCN(C)C)c3)n1)[C@@H](CCO)N([S@+]([O-])C(C)(C)C)C2 [Compound 90, Ethyl (R)-2-((R)-tert-butylsulfinyl)-4-(3-(3-(dimethylamino)prop-1-yn-1-yl)phenyl)-3-(2-hydroxyethyl)-2,3-dihydro-1H-pyrrolo[3,4-c]pyridine-6-carboxylate] |  | >10 | 
12 | > 25 |  | CC(C)(C)[S@@+]([O-])N1Cc2cc(C(=O)NCc3ccc4c(c3)OCO4)nc(-c3cccc(-c4cccnc4)c3)c2C1 [2015-foleyc-212, (R)-N-(benzo[d][1,3]dioxol-5-ylmethyl)-2-(tert-butylsulfinyl)-4-(3-(pyridin-3-yl)phenyl)-2,3-dihydro-1H-pyrrolo[3,4-c]pyridine-6-carboxamide] | > 100 |  | 
13 |  | > 10 | CCOC(=O)c1cc2c(c(-c3cccc(Br)c3)n1)[C@@H](CCO)N([S@+]([O-])C(C)(C)C)C2 [Compound 51, Ethyl (R)-4-(3-bromophenyl)-2-((R)-tert-butylsulfinyl)-3-(2-hydroxyethyl)-2,3-dihydro-1H-pyrrolo[3,4-c]pyridine-6-carboxylate] |  | >10 | 
14 |  | > 10 | CC(C)(C)[S@@+]([O-])N1Cc2cc(C(=O)NCc3ccc4c(c3)OCO4)nc(-c3cccc(Br)c3)c2[C@H]1CCO [Compound 77, (R)-N-(Benzo[d][1,3]dioxol-5-ylmethyl)-4-(3-bromophenyl)-2-((R)-tert-butylsulfinyl)-3-(2-hydroxyethyl)-2,3-dihydro-1H-pyrrolo[3,4-c]pyridine-6-carboxamide] |  | >10 | 
15 | 15.5 ± 0.75 |  | CC(C)NC(=O)N1Cc2cc(C(=O)NCC(F)(F)F)nc(-c3cccc(-c4cccnc4)c3)c2[C@H]1CCO [2015-foleyc-255, (R)-3-(2-hydroxyethyl)-N2-isopropyl-4-(3-(pyridin-3-yl)phenyl)-N6-(2,2,2-trifluoroethyl)-1,3-dihydro-2H-pyrrolo[3,4-c]pyridine-2,6-dicarboxamide] | > 100 |  | 
16 | 5.73 ± 0.33 |  | CC(C)NC(=O)N1Cc2cc(C(=O)NCc3ccc4c(c3)OCO4)nc(-c3cccc(-c4cccnc4)c3)c2[C@H]1CCO [2015-foleyc-253, (R)-N^6-(benzo[d][1,3]dioxol-5-ylmethyl)-3-(2-hydroxyethyl)-N^2-isopropyl-4-(3-(pyridin-3-yl)phenyl)-1,3-dihydro-2H-pyrrolo[3,4-c]pyridine-2,6-dicarboxamide] | 62 |  | 

Row | Compound | EC50 [2] [µM] | IC50 [4] [µM] | EC50 [1] [µM] | Cytotoxicity [5] [µM] | further results
17 | CCOC(=O)c1cc2c(c(-c3cccc(C#CCN(C)C)c3)n1)CN([S@+]([O-])C(C)(C)C)C2 [Compound 49, Ethyl (R)-2-(tert-butylsulfinyl)-4-(3-(3-(dimethylamino)prop-1-yn-1-yl)phenyl)-2,3-dihydro-1H-pyrrolo[3,4-c]pyridine-6-carboxylate] |  | 0.862 |  | >10 | 
